“And” between values parts separate entries of the source, which are not always exact repeats. Identical values can stand only once.
Experiment: xn = mol fraction of the nth substance listed

CC(C)c1ccccc1 + CC(C)(C)O
viscosity [mPa·s], 101 kPa
Conditions	x2 = 0.0995	x2 = 0.2007	x2 = 0.3001	x2 = 0.3998	x2 = 0.5009	x2 = 0.6007	x2 = 0.7002	x2 = 0.8005	x2 = 0.9002
303.15 K	0.6893	0.7128	0.7481	0.7954	0.8754	0.9692	1.129	1.415	1.874
308.15 K	0.6458	0.6665	0.6941	0.7344	0.8007	0.8782	1.007	1.232	1.578
313.15 K	0.6059	0.6215	0.6451	0.6782	0.7352	0.798	0.9019	1.08	1.343
318.15 K	0.5703	0.5814	0.6002	0.6279	0.6742	0.7269	0.8117	0.9531	1.153
323.15 K	0.537	0.5452	0.5604	0.5835	0.6218	0.6649	0.7349	0.8485	1.001

Oc1ccccc1Cl + CCCCOCCO
viscosity [mPa·s], 101 kPa
Conditions	x1 = 0.1256	x1 = 0.2442	x1 = 0.3565	x1 = 0.4628	x1 = 0.5638	x1 = 0.6597	x1 = 0.751	x1 = 0.8379	x1 = 0.9208
303.15 K	3.306	4.125	4.745	5.08	5.13	4.92	4.5	3.975	3.396
308.15 K	2.934	3.49	3.876	4.084	4.093	3.935	3.654	3.302	2.895
313.15 K	2.604	2.992	3.267	3.404	3.405	3.298	3.106	2.847	2.563
318.15 K	2.282	2.554	2.738	2.82	2.833	2.754	2.624	2.45	2.254

O=C(O)c1ccco1 + O=C1CCCCCN1
101 kPa, x2 = 0.5
Conditions	viscosity [mPa·s]
303.1 K	179.6
313.2 K	79.63
323.1 K	44.44

[Cl-].[Cl-].[Mn+2] + O
Conditions	viscosity [mPa·s]
298.15 K, 101.33 kPa, x1 = 0.09931	8.35

CCC(CC)CO + CO
298.15 K, 101.33 kPa
Conditions	viscosity [mPa·s]
x2 = 0.1241	4.806
x2 = 0.2054	4.143
x2 = 0.3133	3.38
x2 = 0.4534	2.454
x2 = 0.5051	2.214
x2 = 0.6004	1.744
x2 = 0.7073	1.33
x2 = 0.8019	1.041
x2 = 0.9015	0.7598

NC(=O)C[C@H](N)C(=O)O + O
viscosity, 101 kPa
Conditions	x1 = 0.00045	x1 = 0.0009	x1 = 0.001	x1 = 0.00135	x1 = 0.001798	x1 = 0.002247	x1 = 0.002695	x1 = 0.003
293.15 K	1.01 mPa·s	1.018 mPa·s	1.015 mPa·s	1.025 mPa·s	1.033 mPa·s	1.041 mPa·s	1.049 mPa·s	1.033 mPa·s
298.15 K	0.8972 mPa·s	0.9037 mPa·s	0.9105 mPa·s	0.9104 mPa·s	0.917 mPa·s	0.9236 mPa·s	0.9301 mPa·s	0.9306 mPa·s
303.15 K	0.8033 mPa·s	0.8089 mPa·s	0.8147 mPa·s	0.8146 mPa·s	0.8202 mPa·s	0.8258 mPa·s	0.8314 mPa·s	0.8318 mPa·s and 0.8318 mPa·s
308.15 K	0.7243 mPa·s	0.7292 mPa·s	0.734 mPa·s and 0.734 mPa·s	0.734 mPa·s	0.7388 mPa·s	0.7436 mPa·s	0.7484 mPa·s	0.7488 mPa·s
313.15 K	0.6573 mPa·s	0.6615 mPa·s	0.6657 mPa·s	0.6657 mPa·s	0.6699 mPa·s	0.674 mPa·s	0.6782 mPa·s	0.6785 mPa·s
318.15 K	0.6013 mPa·s	0.605 mPa·s	0.6087 mPa·s	0.6087 mPa·s	0.6123 mPa·s	0.6159 mPa·s	0.6195 mPa·s	0.6198 mPa·s

From the CheMixHub viscosity set
